From patent US8853219B2, “Compounds and compositions for cognition-enhancement, methods of making, and methods of treating” (NeuroSolis, Inc., priority 2010, dated 2014)
Positions count from the first letter of the chain named. Like-named read-outs stand apart in the source and are kept apart here.

How the values were obtained:
[1] = target: T1, human muscarinic M1 receptors (Homo sapiens, UniProt P11229); test: Stimulation of inositol phosphate production in A9L cells, human M1 (IPOne TR-FRET); type: cell-based; conditions: for huM1/A9L Smax: percentage of maximal stimulation by carbachol
T1 construct: host or cells: A9L cells
T1 sequence (P11229 1-460): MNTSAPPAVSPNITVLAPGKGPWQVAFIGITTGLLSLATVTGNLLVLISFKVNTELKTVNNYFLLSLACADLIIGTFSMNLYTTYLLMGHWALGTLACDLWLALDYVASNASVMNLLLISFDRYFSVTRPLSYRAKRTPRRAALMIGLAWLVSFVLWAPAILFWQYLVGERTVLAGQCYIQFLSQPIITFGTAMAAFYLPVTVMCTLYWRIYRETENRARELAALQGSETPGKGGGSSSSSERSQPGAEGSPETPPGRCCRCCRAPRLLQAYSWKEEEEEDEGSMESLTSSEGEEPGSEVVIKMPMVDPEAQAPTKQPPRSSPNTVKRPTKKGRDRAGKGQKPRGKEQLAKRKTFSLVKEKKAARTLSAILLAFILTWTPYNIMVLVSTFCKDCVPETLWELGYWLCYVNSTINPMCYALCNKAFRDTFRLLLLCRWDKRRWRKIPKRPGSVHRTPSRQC
Protocol: (§1) Muscarinic M1 and M3 agonist activity was evaluated by measuring the stimulation of inositol phosphate (IP) production in the presence of lithium chloride from A9L cells transfected with expression plasmids containing human muscarinic M1 and M3 receptors, respectively. The cell lines were a gift from Professor W Messer, and the methods were as described in Tejada F R et al. J. Med. Chem. 2006; 49: 7518-31 except that the assay was scaled down to run in 384 well plates, and IP was measured in the cell lysates using the non-isotopic IPOne TR-FRET assay (CIS-BIO, Inc).
(§2) Cells were grown to 90% confluence in 384 well hi-base plates (Greiner Bio-One), compounds were added at suitable concentrations in growth medium containing 10 mM LiCL, buffered with an extra 10 mM HEPES (pH7.4), and incubated for 60 minutes at 37° C. Cells were lysed and assayed for IP following the manufacturer's instructions.
(§3) The value for a full agonist is 100%, while partial agonists give values below 100%.

[2] = target: T2, human muscarinic M3 receptors (Homo sapiens, UniProt P20309); test: Stimulation of inositol phosphate production in A9L cells, human M3 (IPOne TR-FRET); type: cell-based; conditions: for huM3/A9L Smax: percentage of maximal stimulation by carbachol
T2 construct: host or cells: A9L cells
T2 sequence (P20309 whole entry): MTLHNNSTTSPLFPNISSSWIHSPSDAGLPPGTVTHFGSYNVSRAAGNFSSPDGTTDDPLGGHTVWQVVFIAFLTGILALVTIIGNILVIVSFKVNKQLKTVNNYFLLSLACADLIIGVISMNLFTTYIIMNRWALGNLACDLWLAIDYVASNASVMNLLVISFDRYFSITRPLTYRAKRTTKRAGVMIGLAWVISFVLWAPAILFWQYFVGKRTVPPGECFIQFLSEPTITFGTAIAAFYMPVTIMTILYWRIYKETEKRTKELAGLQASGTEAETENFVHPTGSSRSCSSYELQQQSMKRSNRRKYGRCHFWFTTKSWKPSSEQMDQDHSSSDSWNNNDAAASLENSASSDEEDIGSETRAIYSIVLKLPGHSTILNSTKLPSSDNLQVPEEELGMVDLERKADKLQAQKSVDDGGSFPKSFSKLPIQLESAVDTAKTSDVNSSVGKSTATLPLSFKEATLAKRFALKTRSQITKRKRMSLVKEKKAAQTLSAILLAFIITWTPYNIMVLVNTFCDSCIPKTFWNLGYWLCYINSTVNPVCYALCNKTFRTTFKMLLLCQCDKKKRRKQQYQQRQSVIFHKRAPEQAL
Protocol: as §1, §2, §3

[3] = system: pooled male human liver microsomes; test: Metabolism by human liver microsomes; type: in vitro ADME; conditions: for Metabolism in human liver microsomes: 6 hours incubation; for Rate of metabolism, S- versus R-enantiomer: human liver microsomes, as also in rat liver microsomes and FMO Supersomes
Protocol: Compounds were incubated with pooled male human liver microsomes (BD Biosciences, #452172) and an NADP-regenerating system in a phosphate buffer (pH 7.4) for a total of 6 hours. Aliquots were removed every 2 hours, and 1% formic acid was added to halt the reaction. Samples were centrifuged, filtered through 0.2 micron spinfilter and the amount of each compound in the supernatants was quantitated using LC/MS/MS.

[4] = Blood and brain concentrations (rats) after oral gavage; type: in vivo, rat; conditions: for Brain Cmax (10 mg/kg po) 1 hr MCD-386 = 1.00: rat brain, relative to MCD-386; for Penetration into the brain: rats after oral dosing
Protocol: Long-Evans Hooded rats (Charles River: male, 250-350 g) were dosed with solutions of test compounds in PBS by oral gavage. At the desired time after dosing, the animals were anesthetized with isoflurane, and then euthanized by cervical dislocation. Blood was obtained by cardiac puncture, transferred to a 1.5 mL microcentrifuge tube containing 15U Heparin, and the plasma recovered after centrifugation. Brains were dissected, weighed, immediately chilled to 4° C., and homogenized using a PowerGen 125 homogenizer in five volumes of ice-cold 2% formic acid. Proteins were precipitated from plasma and brain homogenate with two and five volumes respectively of ice-cold 2% formic acid and clarified by centrifugation. The supernatant was ultra-filtered by centrifugation through a 3K MWCO spin column (Pall Life Sciences), following the manufacturer's instructions. The concentration of compound in the ultra-filtrate was subjected to reverse-phase liquid chromatography using a 150×2.1 mm Agilent C8 reverse-phase column on a Shimadzu Prominence LC, eluting the compounds with a gradient of 2% to 50% of acetonitrile+0.1% formic acid for compound MI-50,382, or an isocratic flow of 2% acetonitrile+0.1% formic acid for the rest of the compounds listed. The concentration of the compound in the column effluent was measured using an Applied Biosystems API-3200 triple quadrupole mass spectrometer equipped with an electrospray sample injection system. The counts of the characteristic parent and product ions of each test compound were converted to concentration units by comparison with a standard calibration curve.

rat M1 receptors = target: T3, rat M1 receptors (Rattus norvegicus, UniProt P08482); test: PI turnover (inositol phosphate production) in M1-CHO cells; type: cell-based; conditions: M1 versus M3 cell lines
T3 construct: host or cells: Chinese Hamster Ovary cells (M1-CHO)
T3 sequence (P08482 1-460): T1 sequence (P11229 1-460) with A5V, T254S, P309S, R320K, A337G, I413V
Protocol: The medium was changed to 70 μL/well of inositol-free DMEM containing 2 mM glutamine, 10% FBS and 10 μCi/ml of [3H]-inositol (PE:cat #NET114A250UC), incubated overnight as above, then 100 μL of a solution of the test compound in HBSS containing 10 mM LiCl and 20 mM HEPES, pH 7.4 was added, incubation was continued for 60 min under the above conditions, and the test was stopped by removing the test compound and replacing with 100 μL of 50 mM formic acid in water at 4° C.

| SMILES | huM1/A9L Smax [1] | huM3/A9L Smax [2] | huM3/A9L ED50 relative to CCh [2] | huM1/A9L ED50 relative to CCh [1] | other results |
| --- | --- | --- | --- | --- | --- |
| Cc1noc([C@H]2CCCN[C@@H]2C)n1 [Compound 20] | 9% | – | – | – | – |
| Cc1noc([C@H]2CCCN[C@@H]2C)n1 [Compound 22] | 7% | 15% | – | – | – |
| Cc1noc([C@H]2CCCN[C@@H]2C)n1 [Compound 21] | 18% | 14% | – | – | – |
| Cc1nsc(C2CCCNC2)n1.Cl (stereo not drawn) [Compound 12a, 3-methyl-5-(piperidin-3-yl)-1,2,4-thiadiazole hydrochloride] | – | – | + (key: ++: potency > 10x CCh; +: potency 2-10x CCh; +/−: potency 0.5-2x CCh; −: potency < 0.5-0.1x CCh; −−: potency < 0.1x CCh; inactive: potency too low to determine) | + (key: ++: potency > 10x CCh; +: potency 2-10x CCh; +/−: potency 0.5-2x CCh; −: potency < 0.5-0.1x CCh; −−: potency < 0.1x CCh; inactive: potency too low to determine) | – |
| Cc1noc([C@H]2CCCNC2)n1 [Compound 3a, S-(+)-3-methyl-5-(piperidin-3-yl)-1,2,4-oxadiazole] | – | – | +/− (key: ++: potency > 10x CCh; +: potency 2-10x CCh; +/−: potency 0.5-2x CCh; −: potency < 0.5-0.1x CCh; −−: potency < 0.1x CCh; inactive: potency too low to determine) | + (key: ++: potency > 10x CCh; +: potency 2-10x CCh; +/−: potency 0.5-2x CCh; −: potency < 0.5-0.1x CCh; −−: potency < 0.1x CCh; inactive: potency too low to determine) | Metabolism in human liver microsomes [3]: metabolized significantly less in human liver microsomes than in rat liver microsomes; Rate of metabolism, S- versus R-enantiomer [3]: metabolized faster than the R-enantiomers |
| c1nsc(C2CCCNC2)n1 (stereo not drawn) [Compound 12b, 5-(piperidin-3-yl)-1,2,4-thiadiazole] | – | – | −− (key: ++: potency > 10x CCh; +: potency 2-10x CCh; +/−: potency 0.5-2x CCh; −: potency < 0.5-0.1x CCh; −−: potency < 0.1x CCh; inactive: potency too low to determine) | − (key: ++: potency > 10x CCh; +: potency 2-10x CCh; +/−: potency 0.5-2x CCh; −: potency < 0.5-0.1x CCh; −−: potency < 0.1x CCh; inactive: potency too low to determine) | – |
| Cc1noc([C@@H]2CCCNC2)n1 [Compound 3b, R-(−)-3-methyl-5-(piperidin-3-yl)-1,2,4-oxadiazole] | – | – | − (key: ++: potency > 10x CCh; +: potency 2-10x CCh; +/−: potency 0.5-2x CCh; −: potency < 0.5-0.1x CCh; −−: potency < 0.1x CCh; inactive: potency too low to determine) | +/− (key: ++: potency > 10x CCh; +: potency 2-10x CCh; +/−: potency 0.5-2x CCh; −: potency < 0.5-0.1x CCh; −−: potency < 0.1x CCh; inactive: potency too low to determine) | Metabolism in human liver microsomes [3]: metabolized significantly less in human liver microsomes than in rat liver microsomes |
| Cc1noc([C@H]2CCCN[C@@H]2C)n1 [Compound 19] | 15% | 34% | – | – | – |
| [2H]C([2H])([2H])c1noc([C@@H]2CCCNC2)n1 [Compound 7b, R-(−)-3-D3-methyl-5-(piperidin-3-yl)-1,2,4-oxadiazole] | – | – | +/− (key: ++: potency > 10x CCh; +: potency 2-10x CCh; +/−: potency 0.5-2x CCh; −: potency < 0.5-0.1x CCh; −−: potency < 0.1x CCh; inactive: potency too low to determine) | + (key: ++: potency > 10x CCh; +: potency 2-10x CCh; +/−: potency 0.5-2x CCh; −: potency < 0.5-0.1x CCh; −−: potency < 0.1x CCh; inactive: potency too low to determine) | Metabolism in human liver microsomes [3]: metabolized significantly less in human liver microsomes than in rat liver microsomes |
| Cl.[2H]C([2H])([2H])C([2H])([2H])c1noc(C2CN=CNC2)n1 (stereo not drawn) [compound 2, 3-(1,1,2,2,2-d5-ethyl)-5-(1,4,5,6-tetrahydropyrimidin-5-yl)-1,2,4-oxadiazole hydrochloride] | – | – | – | – | Brain Cmax (10 mg/kg po) 1 hr MCD-386 = 1.00 [4]: 0.61; Penetration into the brain [4]: penetrated into the brain; Functional selectivity for M1 subtype by PI turnover (rat M1 receptors): M1-subtype functionally selective muscarinic agonists |
| Nc1noc(C2CCCNC2)n1 (stereo not drawn) [Compound 27, 3-Amino-5-(piperidin-3-yl)-1,2,4-oxadiazole] | – | – | +/− (key: ++: potency > 10x CCh; +: potency 2-10x CCh; +/−: potency 0.5-2x CCh; −: potency < 0.5-0.1x CCh; −−: potency < 0.1x CCh; inactive: potency too low to determine) | + (key: ++: potency > 10x CCh; +: potency 2-10x CCh; +/−: potency 0.5-2x CCh; −: potency < 0.5-0.1x CCh; −−: potency < 0.1x CCh; inactive: potency too low to determine) | – |
| Cl.[2H]C([2H])(C)c1noc(C2CN=CNC2)n1 (stereo not drawn) [compound 6, 3-(1,1-d2-ethyl)-5-(1,4,5,6-tetrahydropyrimidin-5-yl)-1,2,4-oxadiazole hydrochloride] | – | – | – | – | Brain Cmax (10 mg/kg po) 1 hr MCD-386 = 1.00 [4]: 0.82; Penetration into the brain [4]: penetrated into the brain; Functional selectivity for M1 subtype by PI turnover (rat M1 receptors): M1-subtype functionally selective muscarinic agonists |
| Cc1noc([C@H]2CCCN[C@@H]2C)n1 [Compound 24] | 41% | 32% | – | −− (key: ++: potency > 10x CCh; +: potency 2-10x CCh; +/−: potency 0.5-2x CCh; −: potency < 0.5-0.1x CCh; −−: potency < 0.1x CCh; inactive: potency too low to determine) | – |
| Cc1noc([C@H]2CCCN[C@@H]2C)n1 [Compound 23] | 23% | 19% | – | – | – |
| [2H]C([2H])([2H])c1noc([C@H]2CCCNC2)n1 [Compound 7a, S-(+)-3-D3-methyl-5-(piperidin-3-yl)-1,2,4-oxadiazole] | – | – | −− (key: ++: potency > 10x CCh; +: potency 2-10x CCh; +/−: potency 0.5-2x CCh; −: potency < 0.5-0.1x CCh; −−: potency < 0.1x CCh; inactive: potency too low to determine) | +/− (key: ++: potency > 10x CCh; +: potency 2-10x CCh; +/−: potency 0.5-2x CCh; −: potency < 0.5-0.1x CCh; −−: potency < 0.1x CCh; inactive: potency too low to determine) | Metabolism in human liver microsomes [3]: metabolized significantly less in human liver microsomes than in rat liver microsomes; Rate of metabolism, S- versus R-enantiomer [3]: metabolized faster than the R-enantiomers |
| Cc1noc(C2CCNC2)n1 (stereo not drawn) [Compound 31, 3-methyl-5-(pyrrolidin-3-yl)-1,2,4-oxadiazole] | – | – | – | – | huM3/A9L ED50 relative to CCh ([2]; potency class relative to carbachol): − (potency < 0.5-0.1x CCh) |
